Each structure is given as a SMILES string. Where two headings read alike, the source gives them in different places. Some results are limits rather than exact numbers.

The test system of one data set is RPMI 8226 cells. As to the kind of experiment: MTT assay cytotoxicity RPMI 8226. The following applies: read-out: Cytotoxicity RPMI 8226 IC50. On the technique in general: Formazan colour is commonly taken as a measure of viable cells.
The target of data set [1] is T1, chymotrypsin-like activity of the 26S proteasome (Homo sapiens, UniProt P28074).
T1 construct: endogenous in cells; host or cells: Jurkat (ATCC TIB-152, E6-1 clone) cell lysate
T1 sequence (P28074 60-263): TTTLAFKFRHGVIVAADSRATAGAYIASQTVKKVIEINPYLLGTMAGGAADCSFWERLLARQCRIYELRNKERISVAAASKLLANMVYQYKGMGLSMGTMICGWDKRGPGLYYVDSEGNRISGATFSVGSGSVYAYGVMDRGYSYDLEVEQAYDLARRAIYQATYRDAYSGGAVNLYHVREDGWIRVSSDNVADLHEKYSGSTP
Nature of the data set: Proteasome assay, chymotrypsin-like (ChT-L) activity, Suc-LLVY-AMC, Jurkat cell lysate. It is filed as biochemical. The following applies: for IC50: ± S.D., read-out: Proteasome Inhibition ChT-like IC50. On the procedure:
(§1) The lysate was stored at −80° C. until the sample was used for the proteasome assay.
(§2) The compounds were diluted with lysis buffer; 10 μL of the compound-containing solution was added to the test wells at ten times the final concentration. […] The results are reported as the average of at least 3 technical replicates of IC50 values for proteasome inhibition.

Another data set deals with MDA-MB-231 cells. As to the kind of experiment: MTT assay cytotoxicity MDA-MB-231. The following applies: read-out: Cytotoxicity MDA-MB-231 IC50.
For another data set, the system named is MCF7 cells. Nature of the data set: MTT assay cytotoxicity MCF7. As to conditions: read-out: Cytotoxicity MCF7 IC50.
Data set [2] concerns the target T2, trypsin-like activity of the 26S proteasome (Homo sapiens, UniProt Q99436).
T2 construct: endogenous in cells; host or cells: Jurkat (ATCC TIB-152, E6-1 clone) cell lysate
T2 sequence (Q99436 44-277): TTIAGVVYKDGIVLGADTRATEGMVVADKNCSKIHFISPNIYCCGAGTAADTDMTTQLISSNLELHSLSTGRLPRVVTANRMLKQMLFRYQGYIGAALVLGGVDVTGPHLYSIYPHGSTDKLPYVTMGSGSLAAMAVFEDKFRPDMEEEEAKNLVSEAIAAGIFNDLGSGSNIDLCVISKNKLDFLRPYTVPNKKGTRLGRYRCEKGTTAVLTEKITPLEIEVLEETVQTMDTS
Nature of the data set: Proteasome assay, trypsin-like (T-L) activity, SUC-RLR-AMC, Jurkat cell lysate. The following applies: ± S.D., read-out: Proteasome Inhibition T-L-like IC50. It is filed as biochemical. On the procedure: as §1, §2

Description for MCF7 cells: (§3) The cells were incubated at 37° C. in a humidified atmosphere with 5% CO2.
(§4) 100 μL of cells were added to each well of a 96 well microtiter plate at a concentration of 4×10^4 cells/mL and incubated overnight to allow proper adhesion. (RPMI 8226 cells were plated at 4×10^5 cells/mL). The cells were treated with the panel of test compounds at a series of concentrations, along with vehicle control DMSO and untreated cells as controls. After 48 h incubation, 20 μL of MTT reagent (3-(4,5-dimethylthiazol-2-yl)-2,5-diphenyltetrazolium bromide) in PBS (5 mg/mL) was added to each well of the plates. The plate was incubated for 2 h at 37° C. For adherent cell lines, the media was removed from each well of the plate and the resulting formazan crystals dissolved in 100 μL of DMSO. For RPMI 8226 cells, 200 ul of DMF/SDS mix (50% DMF. 10% w/v SDS pH<4) was used to solubilize the formazan crystals. Optical density (OD) at 490 nm was measured using a microplate reader. Cells treated with 1 μM phenyl arsine oxide (PAO) served as a positive cell-killing control. Technical replicates of these assays were performed in biological quadruplicate, and the three best values were used for analysis in order to eliminate outliers. Data presented are the average IC50 value calculated from at least 3 technical replicates with the corresponding standard deviation.
Description for MDA-MB-231 cells: as §3, §4
Description for RPMI 8226 cells: as §3, §4

On to `CC(C)[C@H](NC(=O)[C@@H]1OC(=O)[C@H]1C1CCC1)C(=O)N[C@H](C(=O)OCc1ccccc1)C(C)C` [Compound 9b, Benzyl ((2R,3S)-3-cyclobutyl-4-oxooxetane-2-carbonyl)-L-valyl-L-valinate], for which the IC50 in the data set on RPMI 8226 cells (Homo sapiens, RPMI-8226, 48 h) was 30400 ± 4750 nM; in data set [1] (Table 2, P1 analogues) it was 26.5 ± 7.7 nM; in the data set on MDA-MB-231 cells (Homo sapiens, MDA-MB-231, 48 h), ~50000 nM; in the data set on MCF7 cells (Homo sapiens, MCF7, 48 h) it was > 50000 nM; in data set [2] (Table 2, P1 analogues) it was 3730 ± 775 nM.

Turning to `CC(C)[C@H](NC(=O)[C@@H]1OC(=O)[C@H]1C1CCCC1)C(=O)N[C@H](C(=O)OCc1ccccc1)C(C)C` [Compound 9c, Benzyl ((2R,3S)-3-cyclopentyl-4-oxooxetane-2-carbonyl)-L-valyl-L-valinate], the IC50 in the data set with RPMI 8226 cells (Homo sapiens, RPMI-8226, 48 h) is 1980 ± 1000 nM; in data set [1] (Table 2, P1 analogues) it was 13.9 ± 0.6 nM; in the data set on MDA-MB-231 cells (Homo sapiens, MDA-MB-231, 48 h) it was 20600 ± 3940 nM; in the data set on MCF7 cells (Homo sapiens, MCF7, 48 h) it was ~25000 nM; in data set [2] (Table 2, P1 analogues) it was 10200 ± 3390 nM. In addition, in data set [1], the “subunit selectivity, ChT-L over T-L (in words)” value was “greatest selectivity”.

Regarding `CC(C)C[C@@H]1C(=O)O[C@H]1C(=O)N[C@H](C(=O)N[C@H](C(=O)OCc1ccccc1)C(C)C)C(C)C` [Compound 9d, Benzyl ((2R,3S)-3-isobutyl-4-oxooxetane-2-carbonyl)-L-valyl-L-valinate], the IC50 with RPMI 8226 cells (Homo sapiens, RPMI-8226, 48 h) is 19900 ± 8060 nM; in data set [1] (Table 2, P1 analogues), 16 ± 4.7 nM; in the data set with MDA-MB-231 cells (Homo sapiens, MDA-MB-231, 48 h) it was 25300 ± 2940 nM; in the data set with MCF7 cells (Homo sapiens, MCF7, 48 h), ~40000 nM; in data set [2] (Table 2, P1 analogues), 6670 ± 3440 nM.

Take `CC[C@H](C)[C@@H]1C(=O)O[C@H]1C(=O)N[C@@H](Cc1ccccc1)C(=O)N[C@H](C(=O)OCc1ccccc1)C(C)C` [Compound 10b, Benzyl((2R,3S)-3-((S)-sec-butyl)-4-oxooxetane-2-carbonyl)-L-phenylalanyl-L-valinate]: the IC50 in the data set on RPMI 8226 cells (Table 3, MTT, 48 h) is 2330 ± 610 nM; in data set [1] (Table 3, P2/P3 analogues), 7.7 ± 1.7 nM; in the data set with MDA-MB-231 cells (Table 3, MTT, 48 h), 3440 ± 722 nM; in the data set with MCF7 cells (Table 3, MTT, 48 h), ~5000 nM; in data set [2] (Table 3, P2/P3 analogues) it was 3820 ± 812 nM. For the same compound, the “subunit selectivity, ChT-L over T-L (in words)” value in data set [1] is “enhanced subunit selectivity”.

Take `CC[C@H](C)[C@@H]1C(=O)O[C@H]1C(=O)N[C@H](C(=O)N[C@@H](Cc1ccccc1)C(=O)OCc1ccccc1)C(C)C` [Compound 10c, Benzyl((2R,3S)-3-((S)-sec-butyl)-4-oxooxetane-2-carbonyl)-L-valyl-phenylalaninate]: the IC50 in the data set with RPMI 8226 cells (Table 3, MTT, 48 h) was 1040 ± 45 nM; in data set [1] (Table 3, P2/P3 analogues) it was 5.4 ± 2.9 nM; in the data set on MDA-MB-231 cells (Table 3, MTT, 48 h), 2570 ± 705 nM; in the data set on MCF7 cells (Table 3, MTT, 48 h) it was 2300 ± 142 nM; in data set [2] (Table 3, P2/P3 analogues), 1660 ± 204 nM.

For the compound `CC[C@H](C)[C@@H]1C(=O)O[C@H]1C(=O)N[C@@H](Cc1ccccc1)C(=O)N[C@@H](Cc1ccccc1)C(=O)OCc1ccccc1` [Compound 10d, Benzyl((2R,3S)-3-((S)-sec-butyl)-4-oxooxetane-2-carbonyl)-L-phenylalanyl-L-phenylalaninate], the IC50 with RPMI 8226 cells (Table 3, MTT, 48 h) came out at 1280 ± 527 nM; in data set [1] (Table 3, P2/P3 analogues), 12.6 ± 5.7 nM; in the data set with MDA-MB-231 cells (Table 3, MTT, 48 h) it was 4660 ± 1540 nM; in the data set with MCF7 cells (Table 3, MTT, 48 h) it was 3620 ± 2500 nM; in data set [2] (Table 3, P2/P3 analogues), 3050 ± 1260 nM.

On to `CC[C@H](C)[C@@H]1C(=O)O[C@H]1C(=O)N[C@H](C(=O)N[C@H](C(=O)OCc1ccc(OC)cc1)C(C)C)C(C)C` [Compound 11f, 4-methoxybenzyl((2R,3S)-3-((S)-sec-butyl)-4-oxooxetane-2-carbonyl)-L-valyl-L-valinate], for which the IC50 with RPMI 8226 cells (Table 4, MTT, 48 h) turned out to be 117 ± 47 nM; in data set [1] (Table 4, P4 analogues), 9 ± 4.2 nM; in the data set on MDA-MB-231 cells (Table 4, MTT, 48 h), 265 ± 114 nM; with MCF7 cells (Table 4, MTT, 48 h), 574 ± 96 nM.

Turning to `CC[C@H](C)[C@@H]1C(=O)O[C@H]1C(=O)N[C@H](C(=O)N[C@H](C(=O)OC)C(C)C)C(C)C` [Compound 11h, Methyl ((2R,3S)-3-((S)-sec-butyl)-4-oxooxetane-2-carbonyl)-L-valyl-L-valinate], the IC50 in the data set with RPMI 8226 cells (Homo sapiens, RPMI-8226, 48 h) is 293 ± 71 nM; in data set [1] (Table 4, P4 analogues), 24.3 ± 8.2 nM; in the data set on MDA-MB-231 cells (Homo sapiens, MDA-MB-231, 48 h), 316 ± 44 nM; in the data set on MCF7 cells (Homo sapiens, MCF7, 48 h), 506 ± 207 nM.

As usually defined, the IC50 is the concentration that inhibits the measured activity by half.

Values taken from US11396497B2, “Proteasome inhibitors” (New Mexico Tech University Research Park Corporation, priority 2018, dated 2022).
